Reference: patent US20260061008A1, “METHODS OF INCREASING MESENCHYMAL STROMAL CELL BIOSYNTHESIS OF SPECIALIZED PRO-RESOLVING MEDIATORS AND METHODS OF USE” (University of Oregon, priority 2022, published 2026)

What was measured:
OA progression = settings: mice, repeated intra-articular injections into knee joints; cited from earlier work
[1] = system: MSCs encapsulated in PEG-4MAL hydrogels; experiment: RvD1 ELISA of media from MSCs encapsulated in PEG-4MAL hydrogels and treated with DHA; type: cell-based; settings: 160 μM DHA, TCP and PEG-4MAL encapsulated MSCs
Experimental: MSCs were cultured in Tissue Culture Plastic (TCP) or encapsulated in PEG-4MAL hydrogels. The 20 kDa four-arm PEG-4MAL was sourced from Laysan Bio (Item #: 4arm-PEG-20K-5g). A solution of 4% w/v PEG in a 0.5 M (pH=7) MES buffer was prepared. The two peptides, RGD (GCGYGRGDSPG; SEQ ID NO: 1) for functionalization of the gel and VPM (GCRDVPMSMRGGDRCG; SEQ ID NO: 2) for crosslinking were also dissolved in the 0.5 M MES buffer. The hydrogels were prepared using a 2:1:1:1 volume ratio of PEG: RGD: cells/PBS: VPM. The 4% PEG translates to 2 mM in the hydrogel prepared from a 5 mM PEG stock solution. Based on the concentration of maleimides per PEG molecule (8 mM maleimide in 2 mM PEG-4MAL) the RGD concentration was 0.768 mM final concentration in the gel (from a 3.84 mM stock and accounting for ˜96% purity) and the VPM concentration required to cross-link the remaining maleimides in the PEG was 3.456 mM final in the gel (17.28 mM stock). […]
MSCs were treated with 160 μM DHA in the hydrogels in three different conditions. […] Samples of cell culture media were taken incrementally over a period of five days and Resolvin D1 levels were measured via ELISA assay. In addition, samples of the cell culture medium were taken 24 hours after treatment for each group and these samples were analyzed by LCMS (Wayne State University Lipidomics core facility).

| SMILES | OA progression (OA progression) | Duration of continued RvD1 production [1] |
| --- | --- | --- |
| CC/C=C\C[C@H](O)/C=C/C=C\C=C\C=C\[C@@H](O)[C@@H](O)C/C=C\CCC(=O)O [Resolvin D1] | attenuate OA progression | – |
| CC/C=C\C/C=C\C/C=C\C/C=C\C/C=C\C/C=C\CCC(=O)O [DHA, docosahexaenoic acid] | – | at least 120 hours |
